The record followed here is patent US11926625B2, “HPK1 antagonists and uses thereof” (Nimbus Saturn, Inc., priority 2021, dated 2024).

T1 sequence (Q92918 whole entry): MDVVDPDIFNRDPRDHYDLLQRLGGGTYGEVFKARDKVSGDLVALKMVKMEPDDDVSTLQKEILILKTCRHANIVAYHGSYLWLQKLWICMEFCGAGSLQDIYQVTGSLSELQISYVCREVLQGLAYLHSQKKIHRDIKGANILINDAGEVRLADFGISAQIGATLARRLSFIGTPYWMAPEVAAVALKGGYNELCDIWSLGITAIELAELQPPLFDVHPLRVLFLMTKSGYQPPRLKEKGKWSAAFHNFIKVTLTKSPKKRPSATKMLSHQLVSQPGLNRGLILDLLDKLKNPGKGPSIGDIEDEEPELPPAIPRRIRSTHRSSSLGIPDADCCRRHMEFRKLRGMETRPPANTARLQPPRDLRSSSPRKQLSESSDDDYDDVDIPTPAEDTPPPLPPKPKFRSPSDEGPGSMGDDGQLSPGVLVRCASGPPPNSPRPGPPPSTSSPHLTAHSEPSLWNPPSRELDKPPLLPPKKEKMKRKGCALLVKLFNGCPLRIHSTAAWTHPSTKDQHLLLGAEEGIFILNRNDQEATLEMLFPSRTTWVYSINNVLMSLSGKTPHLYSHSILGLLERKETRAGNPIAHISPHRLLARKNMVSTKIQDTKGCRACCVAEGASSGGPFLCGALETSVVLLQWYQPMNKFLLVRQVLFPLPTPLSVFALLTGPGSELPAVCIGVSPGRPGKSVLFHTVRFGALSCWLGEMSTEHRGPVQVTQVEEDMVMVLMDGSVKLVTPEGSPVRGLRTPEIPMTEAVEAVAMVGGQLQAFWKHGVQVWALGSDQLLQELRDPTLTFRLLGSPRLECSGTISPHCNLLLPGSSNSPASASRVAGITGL

The test addresses T1, HPK1 (Homo sapiens, UniProt Q92918).
T1 construct: purchased Invitrogen
Put plainly: HPK1 biochemical enzyme assay (microfluidic mobility shift, Caliper). Conditions: 1.5 nM HPK1 (Invitrogen), 1 mM ATP, 30 min preincubation, 60 min at RT, top concentration 3 μM; read-out: HPK1 1000UMATP caliper IC50. As for the experimental part:
Example 20. HPK1 Biochemical Enzyme Assay
HPK1 biochemical enzyme assay: HPK1 enzyme inhibition was measured using a microfluidic mobility shift assay. Reactions were performed in a 384-well plate, containing 1.5 nM HPK1 (Invitrogen), in assay buffer (Cama Biosciences; pH 7.4). Test compounds were titrated in ten point curves (top final assay concentration 3 μM), and preincubated with enzyme/substrate mix for 30 min prior to initiation of the reaction by addition of ATP (1 mM final concentration) and substrate (1 μM final concentration; Carna Biosciences) diluted in assay buffer supplemented by MgCl2 (final assay concentration of 5 mM). Following 60 min incubation at RT, the reaction was terminated by addition of 60 μl/well termination buffer (Carna Biosciences) and signal determination using a Caliper EZ Reader (Perkin Elmer, UK).
One may read the IC50 as the midpoint of a concentration-inhibition curve. With `CS(=O)(=O)c1ncc(Nc2ccc(N3CCNCC3)cn2)c2c1CNC2=O` [Compound I-5, 4-methylsulfonyl-7-[(5-piperazin-1-yl-2-pyridyl)amino]-2,3-dihydropyrrolo [3,4-c]pyridin-1-one], the IC50 was 1 to 5 µM.

Take `Cn1cncc1-c1ccc(Nc2ccc(N3CCNCC3)cn2)c2c1CNC2=O` [Compound I-71, 4-(1-methyl-1H-imidazol-5-yl)-7-((5-(piperazin-1-yl)pyridin-2-yl)amino) isoindolin-1-one]: the concentration for half-maximal inhibition (IC50) is under 1 µM. The result for `O=C1NCc2c(-c3cnco3)ncc(Nc3ccc(N4CCNCC4)cn3)c21` [Compound I-18, 4-oxazol-5-yl-7-[(5-piperazin-1-yl-2-pyridyl)amino]-2,3-dihydropyrrolo [3,4-c]pyridin-1-one] reads 1 to 5 µM; that for `CN1CCN(c2ccc(Nc3ccc(-c4ccnc(C#CC5CCCO5)c4)c4c3C(=O)NC4)nc2)CC1` (stereo not shown) [Compound I-68], under 1 µM; that for `Cc1ncc(-c2ccc(Nc3ccc(N4CCNCC4)cn3)c3c2CNC3=O)n1C` [Compound I-72, 4-(1,2-dimethyl-1H-imidazol-5-yl)-7-((5-(piperazin-1-yl)pyridin-2-yl)amino) isoindolin-1-one], under 1 µM. In the case of `CN1CCN(c2ccc(Nc3cnc(-c4cc[nH]c4)c4c3C(=O)NC4)nc2)CC1` [Compound I-23, 7-[[5-(4-methylpiperazin-1-yl)-2-pyridyl]amino]-4-(1H-pyrrol-3-yl)-2,3-dihydropyrrolo [3,4-c]pyridin-1-one], the IC50 was under 1 µM.

Turning to `CN1CCN(c2ccc(Nc3ccc(-c4ccnc(C5(C#N)CCOCC5)c4)c4c3C(=O)NC4)nc2)CC1` [Compound I-46, 4-[4-[7-[[5-(4-methylpiperazin-1-yl)-2-pyridyl]amino]-1-oxo-isoindolin-4-yl]-2-pyridyl] tetrahydropyran-4-carbonitrile], the IC50 was under 1 µM. The result for `CN1CCN(c2ccc(Nc3ccc(-c4ccnc(N5CCOCC5)c4)c4c3C(=O)NC4)nc2)CC1` [Compound I-32, 7-[[5-(4-methylpiperazin-1-yl)-2-pyridyl]amino]-4-(2-morpholino-4-pyridyl) isoindolin-1-one] reads under 1 µM; that for `Cc1cccc(C#Cc2cc(-c3ccc(Nc4ccc(N5CCN(C)CC5)cn4)c4c3CNC4=O)ccn2)c1` [Compound I-64], under 1 µM; that for `CN1CCN(c2ccc(Nc3ccc(-c4ccncc4C4CCOCC4)c4c3C(=O)NC4)nc2)CC1` [Compound I-70, 7-((5-(4-methylpiperazin-1-yl)pyridin-2-yl)amino)-4-(3-(tetrahydro-2H-pyran-4-yl)pyridin-4-yl)isoindolin-1-one], 1 to 5 µM. The result for `Cn1c(-c2ccc(Nc3ccc(N4CCNCC4)cn3)c3c2CNC3=O)cnc1-c1ccccc1` [Compound I-78, 4-(1-methyl-2-phenyl-1H-imidazol-5-yl)-7-((5-(piperazin-1-yl)pyridin-2-yl)amino) isoindolin-1-one] reads under 1 µM. In the case of `O=C1NCc2c(-n3ccnc3)ccc(Nc3ccc(N4CCNCC4)cn3)c21` [Compound I-81, 4-(1H-imidazol-1-yl)-7-((5-(piperazin-1-yl)pyridin-2-yl)amino) isoindolin-1-one], the half-maximal inhibitory concentration (IC50) is 1 to 5 µM. As for `CN1CCN(c2ccc(Nc3ccc(-c4ccnc(C5CCOCC5)n4)c4c3C(=O)NC4)nc2)CC1` [Compound I-62, 7-((5-(4-methylpiperazin-1-yl)pyridin-2-yl)amino)-4-(2-(tetrahydro-2H-pyran-4-yl)pyrimidin-4-yl)isoindolin-1-one], the IC50 is 1 to 5 µM. The result for `NC(=O)c1ncc(Nc2ccc(N3CCNCC3)cn2)c2c1CNC2=O` [Compound I-8, 1-oxo-7-[(5-piperazin-1-yl-2-pyridyl)amino]-2,3-dihydropyrrolo [3,4-c]pyridine-4-carboxamide] reads 1 to 5 µM. For the compound `CNc1cc(-c2ncc(Nc3ccc(N4CCN(C)CC4)cn3)c3c2CNC3=O)ccn1` [Compound I-56, 4-(2-(methylamino)pyridin-4-yl)-7-((5-(4-methylpiperazin-1-yl)pyridin-2-yl)amino)-2,3-dihydro-1H-pyrrolo[3,4-c]pyridin-1-one], the half-maximal inhibitory concentration (IC50) is under 1 µM.

As for `CN1CCN(c2ccc(Nc3ccc(-c4ccnc(N5CCCCC5)c4)c4c3C(=O)NC4)nc2)CC1` [Compound I-34, 7-[[5-(4-methylpiperazin-1-yl)-2-pyridyl]amino]-4-[2-(1-piperidyl)-4-pyridyl] isoindolin-1-one], the 50% inhibitory concentration (IC50) is under 1 µM. As to `O=C1NCc2c(-c3ccccc3)ncc(Nc3ccc(N4CCNCC4)cn3)c21` [Compound I-11, 4-phenyl-7-[(5-piperazin-1-yl-2-pyridyl)amino]-2,3-dihydropyrrolo [3,4-c]pyridin-1-one], the IC50 was 1 to 5 µM. The result for `Cn1cc(-c2ccc(Nc3ccc(N4CCNCC4)cn3)c3c2CNC3=O)nc1-c1ccccc1` [Compound I-88, 4-(1-methyl-2-phenyl-1H-imidazol-4-yl)-7-((5-(piperazin-1-yl)pyridin-2-yl)amino) isoindolin-1-one] reads 1 to 5 µM.

On to `COc1ccc(-c2ncc(Nc3ccc(N4CCNCC4)cn3)c3c2CNC3=O)cc1` [Compound I-6, 4-(4-methoxyphenyl)-7-[(5-piperazin-1-yl-2-pyridyl)amino]-2,3-dihydropyrrolo [3,4-c]pyridin-1-one], for which the IC50 lay in the range of 1 to 5 µM. As to `Cn1cnc(-c2ccc(Nc3ccc(N4CCNCC4)cn3)c3c2CNC3=O)c1-c1ccccc1` [Compound I-77, 4-(1-methyl-5-phenyl-1H-imidazol-4-yl)-7-((5-(piperazin-1-yl)pyridin-2-yl)amino) isoindolin-1-one], the IC50 lay in the range of 1 to 5 µM. The result for `CN1CCN(c2ccc(Nc3ccc(-c4ccnc(C5CCCCO5)c4)c4c3C(=O)NC4)nc2)CC1` (stereo not shown) [Compound I-65, 7-((5-(4-methylpiperazin-1-yl)pyridin-2-yl)amino)-4-(2-(tetrahydro 2H-pyran-2-yl)pyridin-4-yl)isoindolin-1-one] reads 1 to 5 µM; that for `CN1CCN(c2ccc(Nc3ccc(-c4ccnc(N5CCOCC5)n4)c4c3C(=O)NC4)nc2)CC1` [Compound I-51, 7-[[5-(4-methylpiperazin-1-yl)-2-pyridyl]amino]-4-(2-morpholinopyrimidin-4-yl)isoindolin-1-one], 1 to 5 µM.

Turning to `CN1CCN(c2ccc(Nc3ccc(-c4cc(N5CC6CCC(C5)O6)ncn4)c4c3C(=O)NC4)nc2)CC1` [Compound I-61, 4-(6-(8-oxa-3-azabicyclo [3.2.1]octan-3-yl)pyrimidin-4-yl)-7-((5-(4-methylpiperazin-1-yl)pyridin-2-yl)amino) isoindolin-1-one], the half-inhibitory concentration (IC50) was in the range of 1 to 5 µM. Under `Cn1cc(-c2ncc(Nc3ccc(N4CCNCC4)cn3)c3c2CNC3=O)cn1` [Compound I-17, 4-(1-methylpyrazol-4-yl)-7-[(5-piperazin-1-yl-2-pyridyl)amino]-2,3-dihydropyrrolo [3,4-c]pyridin-1-one] stands 1 to 5 µM. The result for `O=C1NCc2c(-c3ccncc3)ncc(Nc3ccc(N4CCC(O)CC4)cn3)c21` [Compound I-13, 7-[[5-(4-hydroxy-1-piperidyl)-2-pyridyl]amino]-4-(4-pyridyl)-2,3-dihydropyrrolo [3,4-c]pyridin-1-one] reads 1 to 5 µM; that for `O=C1NCc2c(N3CCOCC3)ncc(Nc3ccc(N4CCNCC4)cn3)c21` [Compound I-16, 4-morpholino-7-[(5-piperazin-1-yl-2-pyridyl)amino]-2,3-dihydropyrrolo [3,4-c]pyridin-1-one], 1 to 5 µM. The result for `CN1CCN(c2ccc(Nc3ccc(-c4cn[nH]c4)c4c3C(=O)NC4)nc2)CC1` [Compound I-84, 7-((5-(4-methylpiperazin-1-yl)pyridin-2-yl)amino)-4-(1H-pyrazol-4-yl)isoindolin-1-one] reads under 1 µM; that for `O=C1NCc2c(C3CCOCC3)ncc(Nc3ccc(N4CCNCC4)cn3)c21` [Compound I-2, 7-[(5-piperazin-1-yl-2-pyridyl)amino]-4-tetrahydropyran-4-yl-2,3-dihydropyrrolo [3,4-c]pyridin-1-one], 1 to 5 µM. As for `CN1CCN(c2ccc(Nc3ccc(-c4ccnc(OCC5CCC5)c4)c4c3C(=O)NC4)nc2)CC1` [Compound I-47, 4-[2-(cyclobutylmethoxy)-4-pyridyl]-7-[[5-(4-methylpiperazin-1-yl)-2-pyridyl]amino] isoindolin-1-one], the concentration for half-maximal inhibition (IC50) is under 1 µM.

For the compound `CN1CCN(c2ccc(Nc3ccc(-c4ccnc(N5CCC(C#N)CC5)c4)c4c3C(=O)NC4)nc2)CC1` [Compound I-37, 1-[4-[7-[[5-(4-methylpiperazin-1-yl)-2-pyridyl]amino]-1-oxo-isoindolin-4-yl]-2-pyridyl] piperidine-4-carbonitrile], the IC50 is under 1 µM. The result for `CN1CCN(c2ccc(Nc3ccc(-c4ccnc(C5CCCOC5)c4)c4c3C(=O)NC4)nc2)CC1` (stereo not shown) [Compound I-66, 7-((5-(4-methylpiperazin-1-yl)pyridin-2-yl)amino)-4-(2-(tetrahydro-2H-pyran-3-yl)pyridin-4-yl)isoindolin-1-one] reads 1 to 5 µM.

For `O=C1NCc2c(Cc3ccccc3)ccc(Nc3ccc(N4CCNCC4)cn3)c21` [Compound I-83, 4-benzyl-7-((5-(piperazin-1-yl)pyridin-2-yl)amino) isoindolin-1-one], the IC50 fell in the range of 1 to 5 µM. Under `CN1CCN(c2ccc(Nc3ccc(-c4ccnc(N(C)C)c4)c4c3C(=O)NC4)nc2)CC1` [Compound I-50] stands under 1 µM; under `CN1CCN(c2ccc(Nc3ccc(-c4cc(C5CCOCC5)ncn4)c4c3C(=O)NC4)nc2)CC1` [Compound I-69], under 1 µM.
